Results as given in the NIST ThermoML archive (doi:10.1021/je200508x).

Experiment: molar heat capacity at constant pressure
Details: 101.33 kPa, Crystal, Vacuum adiabatic calorimetry

C=C(C)C(=O)[O][Sb]([O]C(=O)C(=C)C)([c]1ccccc1)([c]1ccccc1)[c]1ccccc1 [triphenyl-.lambda.5-stibanediyl bis(2-methylacrylate)]
Details | molar heat capacity at constant pressure [J/K/mol]
5 K | 2.01
5.69 K | 2.9
6.38 K | 4.02
7.1 K | 5.41
7.71 K | 6.68
8.27 K | 7.96
8.8 K | 9.25
9.02 K | 9.78
9.38 K | 10.7
9.91 K | 12
10 K | 12.3
10.45 K | 13.4
10.84 K | 14.3
11.3 K | 15.5
11.73 K | 16.5
12.1 K | 17.4
13.05 K | 19.9
13.67 K | 21.6
14.66 K | 24.5
15 K | 25.4
15.64 K | 27.4
16.62 K | 30.16
17.59 K | 33.15
18.52 K | 36.15
19.07 K | 37.69
19.58 K | 39.2
20 K | 40.48
21.68 K | 45.73
24.61 K | 55.52
25 K | 56.85
26.89 K | 62.82
28.78 K | 68.55
30 K | 72.23
31.21 K | 75.9
31.81 K | 78.04
33.66 K | 83.66
33.76 K | 84.46
35 K | 88.24
36.21 K | 92.11
38.67 K | 99.54
40 K | 103.4
41.14 K | 106.6
43.6 K | 113.8
45 K | 117.5
46.06 K | 120.5
48.52 K | 127.2
50 K | 131.7
50.62 K | 133.3
52.35 K | 138.3
56.62 K | 149.3
57.11 K | 150.1
59.23 K | 155.6
60 K | 157.4
61.69 K | 161.4
64.15 K | 167.4
66.61 K | 173.5
68.65 K | 178.9
70 K | 181.9
70.8 K | 183.9
73.27 K | 189.7
75.28 K | 193.9
77.44 K | 199
79.9 K | 204.6
80 K | 204.8
82.19 K | 210
84.03 K | 214.2
84.36 K | 214.5
86.03 K | 217.9
86.44 K | 219.2
88.12 K | 222.6
88.53 K | 223.9
90 K | 226.3
90.24 K | 227.1
90.62 K | 227.4
92.99 K | 232
95.37 K | 236.4
97.74 K | 240.6
100 K | 245.1
100.11 K | 245.2
102.48 K | 250
104.85 K | 254
107.22 K | 258.4
109.45 K | 262.8
110 K | 263.4
111.82 K | 266.7
114.3 K | 271.1
116.58 K | 275.1
118.96 K | 279
120 K | 280.8
121.34 K | 283
123.72 K | 286.8
126.1 K | 290.5
128.48 K | 294.9
130 K | 297.4
130.59 K | 298.4
132.7 K | 302.2
135.08 K | 306.4
139.6 K | 313.7
140 K | 314.6
141.3 K | 316.8
143.4 K | 321
145.22 K | 324.6
147.6 K | 328.9
149.99 K | 333.6
150 K | 333.6
152.36 K | 347.2
154.75 K | 352.6
157.14 K | 362.4
159.53 K | 372.2
160 K | 372.6
161.92 K | 369.5
164.34 K | 355.3
166.76 K | 356.4
169.15 K | 360
170 K | 361.2
171.6 K | 363.4
173.9 K | 366.7
175.85 K | 369.5
178.25 K | 372.5
180 K | 375.2
180.65 K | 376.2
183.05 K | 379.6
184.24 K | 380.9
187.35 K | 385.8
190 K | 389.6
190.9 K | 391.1
194.06 K | 395.5
197.17 K | 400.2
200 K | 404.7
200.73 K | 406
204.87 K | 412.6
209.58 K | 420
210 K | 420.5
214.29 K | 427
218.98 K | 434.2
220 K | 436.3
223.67 K | 442.1
228.35 K | 449.1
230 K | 451.7
232.58 K | 456.1
236.01 K | 461
240 K | 466.6
240.06 K | 466.4
244.71 K | 473.3
249.36 K | 480
250 K | 481.2
252.66 K | 484.9
256.66 K | 491.7
260 K | 496.3
261.29 K | 497.9
265.91 K | 505.5
270 K | 511.1
270.5 K | 511.7
275.08 K | 518.7
277.79 K | 522.4
280 K | 525.9
281.19 K | 527.2
284.56 K | 532.8
287.93 K | 538.8
290 K | 541.9
291.28 K | 544
294.6 K | 550.2
297.91 K | 555.7
298.15 K | 555.9
300 K | 559.1
301.2 K | 561.8
304.48 K | 566.7
307.74 K | 572.1
310 K | 576.3
310.99 K | 577.4
314.22 K | 583.3
317.43 K | 588.2
320 K | 592
320.63 K | 592.8
323.81 K | 597.8
327.25 K | 602.8
330 K | 607
330.43 K | 607
332.9 K | 611.4
334.78 K | 614.7
340 K | 621
350 K | 635
360 K | 649
370 K | 664
380 K | 679
390 K | 694
400 K | 709
